Test results: patent US20230085307A1, “PYRIDAZINONE COMPOUND AND HERBICIDE” (NISSAN CHEMICAL CORPORATION, priority 2019, published 2023)

Key:
Japanese bulrush [1] = assay: Test Example 1: herbicidal activity, application before weed generation under submerged conditions (Table 16, symbol B); assay type: in vivo, Japanese bulrush (Schoenoplectus juncoides)
Outline: (§1)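 Emulsion formulation, water-diluted to set dose, was put onto the flooded surface (4 cm depth, alluvial soil) the same day weeds were sown and 2.5-leaf rice transplanted. After 3 weeks at 25-30 °C under glass, each species was rated 0 (≤5% kill) to 5 (≥90% kill).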

oval-leafed pondweed = assay: Test Example 1: herbicidal activity, application before weed generation under submerged conditions (Table 16, symbol C); assay type: in vivo, oval-leafed pondweed (Monochoria vaginalis)
Outline: as §1

late watergrass = assay: Test Example 2: herbicidal activity, application during weed generation under submerged conditions (Table 17, symbol A); assay type: in vivo, late watergrass (Echinochloa oryzicola); conditions: for herbicidal effect grade, A: late watergrass: application during weed generation under submerged conditions, amount of applied herbicide 320 g/ha
Outline: (§2)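 3-wk visual-criteria score after one water-surface dose. Emulsion formulation, water-diluted to set rate; applied at 1–2 leaf stage; alluvial soil, 4 cm standing water; seeds co-sown; greenhouse 25–30° C.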

Japanese bulrush [2] = assay: Test Example 2: herbicidal activity, application during weed generation under submerged conditions (Table 17, symbol B); assay type: in vivo, Japanese bulrush (Schoenoplectus juncoides); conditions: for herbicidal effect grade, B: Japanese bulrush: application during weed generation under submerged conditions, amount of applied herbicide 320 g/ha
Outline: as §2

rice flat sedge = assay: Test Example 3: herbicidal effect by foliage application, Wagner pot (Table 18, symbol E); assay type: in vivo, rice flat sedge (Cyperus iria); conditions: for Herbicidal effect on E (rice flat sedge), foliage application: amount of applied herbicide 320 g/ha
Outline: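 Plants were sown in alluvial soil held under 0.1–0.5 cm standing water and grown 14 days in a greenhouse at 25–30 °C. An emulsifiable formulation, water-diluted to the set dose, was then sprayed onto the foliage, and effects were scored three weeks later using previously defined criteria.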

wild oat [3] = assay: Test Example 4: herbicidal effect by soil treatment (Table 19, symbol I); assay type: in vivo, wild oat (Avena fatua)
Outline: (§3)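 Scoring uses the grading scale of an earlier test, three weeks post-application. Treatment consists of spraying a diluted emulsion formulation across the surface of sterilized diluvial soil in which seeds are buried near 1.5 cm deep; boxes are kept in a greenhouse between 25° C. and 30° C.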

Italian ryegrass [4] = assay: Test Example 4: herbicidal effect by soil treatment (Table 19, symbol K); assay type: in vivo, Italian ryegrass (Lolium multiflorum)
Outline: as §3

velvetleaf [5] = assay: Test Example 4: herbicidal effect by soil treatment (Table 19, symbol M); assay type: in vivo, velvetleaf (Abutilon theophrasti)
Outline: as §3

lambsquarters [6] = assay: Test Example 4: herbicidal effect by soil treatment (Table 19, symbol O); assay type: in vivo, lambsquarters (Chenopodium album)
Outline: as §3

persian speedwell = assay: Test Example 4: herbicidal effect by soil treatment (Table 19, symbol R); assay type: in vivo, Persian speedwell (Veronica persica)
Outline: as §3

barnyard grass = assay: Test Example 5: herbicidal effect by foliage application, plastic box (Table 20, symbol H); assay type: in vivo, barnyard grass (Echinochloa crus-galli); conditions: foliage application; for H (barnyard grass) herbicidal effect grade: 320 g/ha, evaluated 3 weeks after application
Outline: (§4)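 Post-emergence foliar test in sterilized diluvial soil. Compound applied as water-diluted emulsion at a predetermined rate to 14-day-old plants; evaluation at three weeks.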

wild oat [7] = assay: Test Example 5: herbicidal effect by foliage application, plastic box (Table 20, symbol I); assay type: in vivo, wild oat (Avena fatua); conditions: foliage application; for I (wild oat) herbicidal effect grade: 320 g/ha, evaluated 3 weeks after application
Outline: as §4

Italian ryegrass [8] = assay: Test Example 5: herbicidal effect by foliage application, plastic box (Table 20, symbol K); assay type: in vivo, Italian ryegrass (Lolium multiflorum); conditions: foliage application; for K (Italian ryegrass) herbicidal effect grade: 320 g/ha, evaluated 3 weeks after application
Outline: as §4

windgrass = assay: Test Example 5: herbicidal effect by foliage application, plastic box (Table 20, symbol L); assay type: in vivo, windgrass (Apera spica-venti); conditions: foliage application; for L (windgrass) herbicidal effect grade: 320 g/ha, evaluated 3 weeks after application
Outline: as §4

velvetleaf [9] = assay: Test Example 5: herbicidal effect by foliage application, plastic box (Table 20, symbol M); assay type: in vivo, velvetleaf (Abutilon theophrasti); conditions: foliage application; for M (velvetleaf) herbicidal effect grade: 320 g/ha, evaluated 3 weeks after application
Outline: as §4

lambsquarters [10] = assay: Test Example 5: herbicidal effect by foliage application, plastic box (Table 20, symbol O); assay type: in vivo, lambsquarters (Chenopodium album); conditions: foliage application; for O (lambsquarters) herbicidal effect grade: 320 g/ha, evaluated 3 weeks after application
Outline: as §4

chickweed = assay: Test Example 5: herbicidal effect by foliage application, plastic box (Table 20, symbol P); assay type: in vivo, common chickweed (Stellaria media); conditions: foliage application; for P (chickweed) herbicidal effect grade: 320 g/ha, evaluated 3 weeks after application
Outline: as §4

[11] = amount of applied herbicide 320 g/ha
[12] = amount of applied herbicide 296 g/ha
[13] = AAH 296 g/ha, application during weed generation, submerged conditions
[14] = 296 g/ha, three weeks after application

Compound	Herbicidal effect, B: Japanese bulrush (Japanese bulrush [1]; [11])	Herbicidal effect, C: oval-leafed pondweed (oval-leafed pondweed; [11])	herbicidal effect grade, A: late watergrass (late watergrass)	herbicidal effect grade, B: Japanese bulrush (Japanese bulrush [2])	Herbicidal effect on E (rice flat sedge), foliage application (rice flat sedge)	I: wild oat, herbicidal effect grade (wild oat [3]; [11])	K: Italian ryegrass, herbicidal effect grade (Italian ryegrass [4]; [11])	M: velvetleaf, herbicidal effect grade (velvetleaf [5]; [11])	O: lambsquarters, herbicidal effect grade (lambsquarters [6]; [11])	R: persian speedwell, herbicidal effect grade (persian speedwell; [11])	H (barnyard grass) herbicidal effect grade (barnyard grass)	I (wild oat) herbicidal effect grade (wild oat [7])	K (Italian ryegrass) herbicidal effect grade (Italian ryegrass [8])	L (windgrass) herbicidal effect grade (windgrass)	M (velvetleaf) herbicidal effect grade (velvetleaf [9])	O (lambsquarters) herbicidal effect grade (lambsquarters [10])	P (chickweed) herbicidal effect grade (chickweed)	other results
COCCOc1ccc(-c2oc3ccc(C)cc3c2-c2c(O)c(C)nn(C)c2=O)cc1 [9-063]	5 (Herbicidal rate of 90% or more (almost completely withered))	5 (Herbicidal rate of 90% or more (almost completely withered))	5 (Herbicidal rate of 90% or more (almost completely withered))	4 (Herbicidal rate of 70% or more and less than 90%)	4 (Herbicidal rate of 70% or more and less than 90%)	0 (Herbicidal rate of 5% or less (almost no effect))	5 (Herbicidal rate of 90% or more (almost completely withered))	5 (Herbicidal rate of 90% or more (almost completely withered))	5 (Herbicidal rate of 90% or more (almost completely withered))	5 (Herbicidal rate of 90% or more (almost completely withered))	5 (Herbicidal rate of 90% or more (almost completely withered))	1 (Herbicidal rate of 5% or more and less than 20%)	5 (Herbicidal rate of 90% or more (almost completely withered))	4 (Herbicidal rate of 70% or more and less than 90%)	5 (Herbicidal rate of 90% or more (almost completely withered))	5 (Herbicidal rate of 90% or more (almost completely withered))	5 (Herbicidal rate of 90% or more (almost completely withered))	–
Cc1nn(C)c(=O)c(-c2c(-c3ccc(Cl)cc3)sc3cccc(F)c23)c1O [11-001]	5 (Herbicidal rate of 90% or more (almost completely withered))	5 (Herbicidal rate of 90% or more (almost completely withered))	2 (Herbicidal rate of 20% or more and less than 40%)	3 (Herbicidal rate of 40% or more and less than 70%)	5 (Herbicidal rate of 90% or more (almost completely withered))	0 (Herbicidal rate of 5% or less (almost no effect))	0 (Herbicidal rate of 5% or less (almost no effect))	2 (Herbicidal rate of 20% or more and less than 40%)	4 (Herbicidal rate of 70% or more and less than 90%)	5 (Herbicidal rate of 90% or more (almost completely withered))	0 (Herbicidal rate of 5% or less (almost no effect))	0 (Herbicidal rate of 5% or less (almost no effect))	3 (Herbicidal rate of 40% or more and less than 70%)	0 (Herbicidal rate of 5% or less (almost no effect))	5 (Herbicidal rate of 90% or more (almost completely withered))	5 (Herbicidal rate of 90% or more (almost completely withered))	5 (Herbicidal rate of 90% or more (almost completely withered))	–
CCCC(=O)Oc1c(C)nn(C)c(=O)c1-c1c(-c2ccccc2OC)sc2cc(OC)ccc12 [Compound No. 3-066, 5-(6-methoxy-2-(2-methoxyphenyl)benzo[b]thiophen-3-yl)-1,3-dimethyl-6-oxo-1,6-dihydropyridazin-4-yl=(n-butyrate)]	–	–	–	–	–	–	–	–	–	–	–	–	–	–	–	–	–	Herbicidal effect, B: Japanese bulrush (Japanese bulrush [1]; [12]): 5 (Herbicidal rate of 90% or more (almost completely withered)); Herbicidal effect, C: oval-leafed pondweed (oval-leafed pondweed; [12]): 5 (Herbicidal rate of 90% or more (almost completely withered)); herbicidal effect rating, A: late watergrass (late watergrass; [13]): 3 (Herbicidal rate of 40% or more and less than 70%); herbicidal effect rating, B: Japanese bulrush (Japanese bulrush [2]; [13]): 4 (Herbicidal rate of 70% or more and less than 90%); herbicidal effect on rice flat sedge (E) (rice flat sedge; 296 g/ha): 5 (Herbicidal rate of 90% or more (almost completely withered)); I: wild oat, herbicidal effect grade (wild oat [3]; [12]): 2 (Herbicidal rate of 20% or more and less than 40%); K: Italian ryegrass, herbicidal effect grade (Italian ryegrass [4]; [12]): 4 (Herbicidal rate of 70% or more and less than 90%); M: velvetleaf, herbicidal effect grade (velvetleaf [5]; [12]): 0 (Herbicidal rate of 5% or less (almost no effect)); O: lambsquarters, herbicidal effect grade (lambsquarters [6]; [12]): 0 (Herbicidal rate of 5% or less (almost no effect)); R: persian speedwell, herbicidal effect grade (persian speedwell; [12]): 3 (Herbicidal rate of 40% or more and less than 70%); H: barnyard grass, herbicidal effect grade (barnyard grass; [14]): 4 (Herbicidal rate of 70% or more and less than 90%); I: wild oat, herbicidal effect grade (wild oat [7]; [14]): 3 (Herbicidal rate of 40% or more and less than 70%); K: Italian ryegrass, herbicidal effect grade (Italian ryegrass [8]; [14]): 4 (Herbicidal rate of 70% or more and less than 90%); L: windgrass, herbicidal effect grade (windgrass; [14]): 5 (Herbicidal rate of 90% or more (almost completely withered)); M: velvetleaf, herbicidal effect grade (velvetleaf [9]; [14]): 4 (Herbicidal rate of 70% or more and less than 90%); O: lambsquarters, herbicidal effect grade (lambsquarters [10]; [14]): 5 (Herbicidal rate of 90% or more (almost completely withered)); P: chickweed, herbicidal effect grade (chickweed; [14]): 5 (Herbicidal rate of 90% or more (almost completely withered))
